Source: patent US10646466B2, “Uses of gallocatechin” (TCI CO., LTD., priority 2017, dated 2020)

Key:
Type in all cases: cell-based
Settings in all cases: 0.0625 μg/ml, 24 hours, control set as 1-fold
[1] = tested on: AANAT gene; test: qPCR expression level of AANAT gene in SHSY5Y cells
Protocol: (§1) SHSYSY cells were seeded in a 6-well plate (1×10^5 cells/well) and then cultured for 24 hours. Thereafter, cells were divided into the control group and experimental group and were separately cultured in the following medium for 24 hours: • 1. Control group: DMEM medium; • 2. Experimental group: a medium the same as that of the control group, but additionally added with 0.0625 μg/ml of the compound of formula (I). Thereafter, cells of the above groups were harvested and subjected to an RNA extraction with an RNA Extract Kit. The RNA thus obtained was then transcribed into cDNA by using a Reverse Transcriptase. Thereafter, the cDNA was subjected to a quantitative polymerase chain reaction (qPCR) by using a Step One Plus system and a KAPA SYBR FAST qPCR kit to determine the expression levels of genes related to melatonin (including TPH1, DDC, AANAT and ASMTL) in the cells of each group. The above experimental steps were repeated three times, and then the results of the three experiments were averaged. Thereafter, the result of the control group was used as a basis (i.e., the gene expression level of the control group was set as 1-fold) to calculate the relative gene expression level of the experimental group.

[2] = tested on: TPH1 gene; test: qPCR expression level of TPH1 gene in SHSY5Y cells
Protocol: as §1

[3] = tested on: ASMTL gene; test: qPCR expression level of ASMTL gene in SHSY5Y cells
Protocol: as §1

[4] = tested on: DDC gene; test: qPCR expression level of DDC gene in SHSY5Y cells
Protocol: as §1

Oc1cc(O)c2c(c1)O[C@H](c1cc(O)c(O)c(O)c1)[C@@H](O)C2 [compound of formula (I), gallocatechin]
significantly increased: relative expression level of AANAT gene as compared to the control group [1] | relative expression level of TPH1 gene as compared to the control group [2] | relative expression level of ASMTL gene as compared to the control group [3] | relative expression level of DDC gene as compared to the control group [4]
